Measurements: ChEMBL document CHEMBL6096670, “Design, synthesis and biological evaluation of novel β-carbolines as antitumor agents via targeting autophagy in colorectal cancer” (Eur J Med Chem, 2025)
Active and inactive are the calls of the source. No cut-off for these calls is given here.

How the values were obtained:
CT26 = test: Antitumor activity against mouse CT26 cells implanted in female BALB/c mouse assessed as reduction in Ki67 expression at 1 to 2 mg/kg administrated once every 3 days for 18 days by immunohistochemistry analysis; assay type: functional, organism-based; details: dose 1-2 mg/kg, time 18.0 day
HCT-116 [1] = test: Upregulation of autophagy pathway related genes expression in human HCT-116 cells at 1 uM incubated for 24 hrs by heat map analysis; assay type: functional, cell-based
HCT-116 [2] = test: Induction of autophagy in human HCT-116 cells transfected with tandem mRFP-GFP-LC3 plasmid assessed as reduction in p62 expression by Western blot analysis; assay type: functional, cell-based; details: time 3-48 hrs
HCT-116 [3] = test: Induction of apoptosis in human HCT-116 cells assessed as effect on cleaved caspase 9 expression level at 0.5 to 2 uM incubated for 24 hrs by Western blot analysis; assay type: functional, cell-based; details: dose 0.5-2 µM
HCT-116 [4] = test: Effect on caspase 3 expression level in p53 knockout human HCT-116 cells at 1 to 2 uM incubated for 24 hrs by Western blot analysis; assay type: functional, cell-based; details: dose 1-2 µM
HCT-116 [5] = test: Induction of autophagy in human HCT-116 cells transfected with tandem mRFP-GFP-LC3 plasmid assessed as increase in LC3-II accumulation by Western blot analysis; assay type: functional, cell-based; details: time 3-48 hrs
HCT-116 [6] = test: Induction of autophagy in human HCT-116 cells transfected with mRFP-GFP-LC3B assessed as appearance of RFP aggregate clusters in cytoplasm at 0.5 to 2 uM incubated for 24 hrs by DAPI staining based fluorescence confocal microscopic analysis; assay type: functional, cell-based; details: dose 0.5-2 µM
HCT-116 [7] = test: Induction of morphological changes in human HCT-116 cells assessed as decrease in adherence to culture dish at 0.5 to 2 uM by microscopic analysis; assay type: functional, cell-based; details: dose 0.5-2 µM
HCT-116 [8] = test: Induction of autophagy pathway in human HCT-116 cells at 1 uM incubated for 24 hrs by GSEA analysis; assay type: functional, cell-based

CCN(CC)CCCNCc1cc2c3ccccc3n(CCCc3ccccc3)c2c(CNCCCN(CC)CC)n1
Activity (CT26): Active | Activity (HCT-116 [1]): Active | Activity (HCT-116 [2]): Time-dependent-effect | Activity (HCT-116 [3]): inactive | Activity (HCT-116 [4]): inactive | Activity (HCT-116 [5]): Time-dependent-effect | Activity (HCT-116 [6]): Active | Activity (HCT-116 [7]): Active | Activity (HCT-116 [8]): Active
